# Assays:
# GABAA receptor = conditions: table 3 in WO 09/142594; cited from earlier work
# Male Wistar rats [1] = experiment: Weight increase in growing male rats, experiment 2 (daily subcutaneous injection, 10 days); format: in vivo, rat; conditions: for reduced weight versus the E+P control rats / reduction in weight compared to vehicle: 10 days
# Protocol: (§1) Animals: Male Wistar rats were kept in group cages, with three animals per cage, from delivery and throughout the period of experiments. The individual animals were marked so that they could be identified throughout the experiment duration. The animals weight an average of 152 g upon arrival. A reversed light dark (12:12h) cycle was used with the dark period onset at 0600 hrs. Altogether fifty-six (56) rats were used in this study (experiment 1+2). The animals were delivered from the breeder Taconic (Denmark). The study protocol was approved by the Regional Ethics Committee of Umeå University, Sweden.
# (§2) Feeding: Standard chow and water were available ad libitum. A reversed 12-h dark-light cycle with lights off at 10.00 am and lights on at 22.00 pm was used. For identification, the rats were marked with a permanent marker on the tail. To avoid the endogenous allopregnanolone fluctuations that are present in the oestrous cycle of female rats, male rats were chosen (Frye et al. 2000). The animals were allowed to acclimatize for at least 3 weeks before start of the experimental sessions. During this period, the rats were repeatedly handled and allowed habituation to the new environment and to all new procedures, to minimize stress during the experiments.
# (§3) After 14 days of triad housing, handling and injection training of the animals, the animals were treated for 5 days with IV injections in experiment 1 and 10 days with a daily subcutaneous injection of the assigned treatment in experiment 2 (Tables 4 and 5). The injections were given at 08.00 every morning. The animals were weighed the day before onset of the treatment and at the last day of injection i.e. on the 5th or 10th day of treatment. Weight was taken at the time of the last injection. […] The results are shown in FIG. 3 (experiment 1) and FIG. 4 (experiment 2), respectively.
# [2] = biological target: T1, human GABAA-receptor subtype α3β3γ2L (Homo sapiens, UniProt P28472+P34903); experiment: Patch clamp (Dynaflow) THDOC enhancement of GABA response, HEK-293 cells, α3β3γ2L; format: cell-based; conditions: 1 μM steroid + THDOC
# T1 construct: expressed in transfected cells
# Source text: (§4) In these tests the protocol was optimized to be like the physiological conditions in the synaptic cleft.
# (§5) Preparation of cell lines: HEK-293 cells permanently transfected with the human α1-β2-γ2L, α2-β3-γ2S, α3-ββ3-γ2L, α4-β3-δ or α5-β3-γ2L GABAA-receptor subtypes were used. The cell lines permanently expressing a functional human GABAA-receptor was made in following steps. The human GABAA-receptor subunits e.g. α1 (308-1727 NM_000806), β2 (214-1679 NM_000813), γ2L (290-1785 NM_198904), α2, β3, γ2S, α3, α4, δ and α5 including introduced Kozac sequences just before the start codons were subcloned into mammalian expression vectors containing Geneticin, Hygromycin B, and Zeocin resistance, respectively. A HEK-293 cell line stably expressing the three GABAA-receptor subunits was produced by transfection of the subunits, one at a time. The transfection was followed by selection with the appropriate antibiotics, cell separation with the use of subunit specific antibodies and production of single cell colonies. Produced cell lines were analysed with immunocytochemistry for the three GABAA-receptor subunits, followed by selection of a suitable cell line showing, for the GABAA-receptor normal and good reactivity in a patch-clamp analysis (see below) towards GABA and the GAMS THDOC.
# (§6) Cell culture: HEK-293 cells, permanently transfected with human α1-β2-γ2L, α2-β3-γ2S, α3-β3-γ2L, α4-β3-δ and α5-β3-γ2L GABAA-receptor subtypes, were seeded at a density of 3×10^4/25 cm^2 in cell binding culture flask. The transfected cells were used for patch-clamp experiments 3 days after seeding. When using the cells for patch-clamp experiments the cells were washed twice with oxygen-bubbled EC-solution (see below). About 5 mL EC was then added and the cells were kept in the incubator for about 15 minutes. After 15 minutes the cells came loose from the bottom of the flask and were separated by carefully sucking couple of times with a Pasteur pipette.
# (§7) Dynaflow™ system: Dynaflow™ system with resolve chips was used for all patch-clamp experiments. The resolve chips is made of non-sticky materials. The channel width is 150 μm and the height 50 μm. The well volume is 280 μL. Run time at the flow rate of 26 μL/min is […]. The pump settings were as follow: Omnifix 2 ml syringe with inner diameter of 9.65 mm was used. The syringe pump flow rate of chip was 26 μL/min.
# (§8) Steroids and GABA: GABA was dissolved in EC-solution by ultrasound for about 40 minutes to the concentration of 10 mM in room temperature. All steroids were dissolved to the concentration of 6 mM in dimethyl sulfoxide (DMSO). The DMSO concentration was 0.1% in all end-solutions, including the wash solution (EC) and the solution with GABA alone. End-solutions are the solutions added into the wells of the chip.
# (§9) Electrophysiology: Patch electrodes were pulled from 1.5 mm O.D., 0.86 mm I.D. borosilicate capillary glass without filament. […] The intracellular solution (IC) comprised of (in mM): 140 Cs-gluconate, 3.0 NaCl, 1.2 MgCl2, 1.0 EGTA, 10 HEPES. pH was adjusted to 7.2 with CsOH. The extracellular (EC) solution used during recordings contained (in mM): 137 NaCl, 5.0 KCl, 1.0 CaCl2), 1.2 MgCl2, 10 HEPES, 10 glucose. pH was adjusted with NaOH to 7.4. After compensating for the liquid junction potential, a steady holding potential of −17 mV was used in all experiments. In physiological conditions the HEK-293 has a resting potential at −40 mV and a low concentration of chloride ions inside the cell. By using the holding potential of-17 mV and the intracellular solution with low chloride ion concentration the chloride ions flux into the cell when the receptors are activated. All experiments were performed at room temperature (21 to 23° C.). The following standard protocol was used for all experiments.
# (§10) GABA applications: By using the Dynaflow equipment it is possible to study transfected HEK-293 during almost physiological conditions.
# [3] = biological target: T2, human α3-β3-γ2L GABAA-receptor subtype (Homo sapiens, UniProt P28472+P34903); experiment: Patch clamp (Dynaflow) GABA-mediated current response, HEK-293 cells, α3β3γ2L; format: cell-based; conditions: 1 μM steroid; essentially as in Example 2
# T2 construct: expressed in transfected cells
# Source text: as §4, §5, §6, §7, §8, §9, §10
# [4] = biological target: T3, human α1-β2-γ2L GABAA-receptor subtype (Homo sapiens, UniProt P14867+P47870); experiment: Patch clamp (Dynaflow) GABA-mediated current response, HEK-293 cells, α1β2γ2L; format: cell-based; conditions: 1 μM steroid; essentially as in Example 2
# T3 construct: expressed in transfected cells
# Source text: as §4, §5, §6, §7, §8
# as §9, with “By using the holding potential of-17 mV and the intracellular solution with low chloride ion concentration the chloride ions flux into the cell when the receptors are activated. All experiments were performed at room temperature (21 to 23° C.). The following standard protocol was used for all experiments.” left out
# [5] = biological target: T4, GABAA receptor subtype α1β2γ2 (Homo sapiens, UniProt P14867+P47870); experiment: Patch clamp THDOC enhancement of GABA response, α1β2γ2; format: cell-based; conditions: 1 μM steroid + THDOC
# T4 construct: expressed in transfected cells
# Source text: as §4
# as §5, with “THDOC. […]” for “THDOC.”
# Male Wistar rats [6] = experiment: Weight increase in growing male rats, experiment 1 (IV injections, 5 days); format: in vivo, rat; conditions: 2 mg/kg IV
# Protocol: as §1, §2, §3
# [7] = 1 mg/kg s.c. + 5 mg/kg progesterone + 10 μg/kg 17β-estradiol
# [8] = 5 mg/kg s.c. + 5 mg/kg progesterone + 10 μg/kg 17β-estradiol
# T3 sequence (P14867 28-456): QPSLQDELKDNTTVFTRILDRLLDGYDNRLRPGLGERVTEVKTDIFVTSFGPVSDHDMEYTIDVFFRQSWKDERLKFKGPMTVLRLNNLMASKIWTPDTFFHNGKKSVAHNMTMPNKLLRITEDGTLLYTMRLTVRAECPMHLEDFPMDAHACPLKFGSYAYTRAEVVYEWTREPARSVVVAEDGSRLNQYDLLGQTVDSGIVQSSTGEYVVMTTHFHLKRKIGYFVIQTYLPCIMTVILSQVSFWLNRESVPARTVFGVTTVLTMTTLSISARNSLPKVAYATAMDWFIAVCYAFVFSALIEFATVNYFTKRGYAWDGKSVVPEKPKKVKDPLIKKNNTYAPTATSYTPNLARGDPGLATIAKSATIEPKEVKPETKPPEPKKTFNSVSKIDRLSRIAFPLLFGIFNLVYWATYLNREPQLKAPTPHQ
# T3 sequence (P47870 26-474 isoform P47870-1 limits assumed): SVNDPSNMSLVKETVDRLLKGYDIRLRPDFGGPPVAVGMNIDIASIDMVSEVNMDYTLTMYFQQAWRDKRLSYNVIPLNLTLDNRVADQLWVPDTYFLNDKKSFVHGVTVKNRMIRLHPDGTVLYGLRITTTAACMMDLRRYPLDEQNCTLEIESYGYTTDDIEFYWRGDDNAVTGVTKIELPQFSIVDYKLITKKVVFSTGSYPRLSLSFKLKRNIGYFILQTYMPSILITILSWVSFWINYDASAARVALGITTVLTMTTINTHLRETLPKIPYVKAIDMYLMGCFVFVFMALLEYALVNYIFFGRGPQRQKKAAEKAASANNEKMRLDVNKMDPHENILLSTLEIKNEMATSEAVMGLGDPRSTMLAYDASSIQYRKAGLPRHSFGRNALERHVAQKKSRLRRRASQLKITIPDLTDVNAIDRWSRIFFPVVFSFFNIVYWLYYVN
# T3 sequence (P18507 40-475 partner): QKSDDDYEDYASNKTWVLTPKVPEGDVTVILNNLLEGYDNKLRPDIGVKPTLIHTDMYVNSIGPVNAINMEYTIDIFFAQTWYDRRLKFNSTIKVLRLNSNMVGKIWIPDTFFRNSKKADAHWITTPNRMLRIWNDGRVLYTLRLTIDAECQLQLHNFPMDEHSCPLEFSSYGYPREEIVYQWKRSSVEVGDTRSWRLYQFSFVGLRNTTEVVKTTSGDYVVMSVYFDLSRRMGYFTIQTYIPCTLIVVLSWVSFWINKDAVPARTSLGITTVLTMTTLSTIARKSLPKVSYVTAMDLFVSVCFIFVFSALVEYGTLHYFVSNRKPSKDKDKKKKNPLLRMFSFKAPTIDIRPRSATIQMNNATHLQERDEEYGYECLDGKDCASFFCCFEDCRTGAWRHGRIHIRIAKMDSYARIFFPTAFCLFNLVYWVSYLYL
# T4 sequence (P14867 28-456): as the sequence (P14867 28-456) above
# T4 sequence (P47870 26-474 isoform P47870-1 limits assumed): as the sequence (P47870 26-474 isoform P47870-1 limits assumed) above
# T4 sequence (P18507 40-475 partner): as the sequence (P18507 40-475 partner) above
# T2 sequence (P34903 29-492): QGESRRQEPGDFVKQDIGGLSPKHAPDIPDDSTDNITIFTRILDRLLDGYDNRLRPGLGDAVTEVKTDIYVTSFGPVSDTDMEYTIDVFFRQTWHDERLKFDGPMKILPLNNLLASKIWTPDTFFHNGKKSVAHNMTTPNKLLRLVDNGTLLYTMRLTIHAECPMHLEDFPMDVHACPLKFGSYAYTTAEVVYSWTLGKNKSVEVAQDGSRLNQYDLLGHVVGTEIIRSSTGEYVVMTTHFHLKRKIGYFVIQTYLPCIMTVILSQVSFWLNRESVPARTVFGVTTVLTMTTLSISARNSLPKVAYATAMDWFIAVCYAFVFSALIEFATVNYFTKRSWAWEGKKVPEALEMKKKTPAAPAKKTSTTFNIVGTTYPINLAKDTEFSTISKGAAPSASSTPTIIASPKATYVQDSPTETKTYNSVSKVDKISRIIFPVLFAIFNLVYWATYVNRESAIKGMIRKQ
# T2 sequence (P28472 26-473): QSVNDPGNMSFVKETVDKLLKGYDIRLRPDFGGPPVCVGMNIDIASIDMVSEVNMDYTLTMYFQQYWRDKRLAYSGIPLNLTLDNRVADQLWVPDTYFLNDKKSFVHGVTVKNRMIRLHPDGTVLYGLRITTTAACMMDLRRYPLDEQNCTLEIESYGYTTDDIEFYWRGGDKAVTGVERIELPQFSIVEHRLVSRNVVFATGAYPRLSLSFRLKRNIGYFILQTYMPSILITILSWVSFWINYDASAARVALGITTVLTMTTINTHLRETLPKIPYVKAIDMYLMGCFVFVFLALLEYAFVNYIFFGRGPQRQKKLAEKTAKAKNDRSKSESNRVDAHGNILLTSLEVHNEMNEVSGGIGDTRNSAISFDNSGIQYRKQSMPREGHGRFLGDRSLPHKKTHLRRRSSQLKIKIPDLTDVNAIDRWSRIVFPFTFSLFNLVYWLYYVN
# T2 sequence (P18507 40-475 partner): as the sequence (P18507 40-475 partner) above
# T1 sequence (P34903 29-492): as the sequence (P34903 29-492) above
# T1 sequence (P28472 26-473): as the sequence (P28472 26-473) above
# T1 sequence (P18507 40-475 partner): as the sequence (P18507 40-475 partner) above
smiles,measurement,setting,value
C#C[C@]1(O)CC[C@@]2(C)[C@@H](CC[C@@H]3[C@@H]2CC[C@]2(C)C(=O)CC[C@@H]32)C1 [3α-ethynyl-3β-hydroxy-5α-androstan-17-one],effect as a GAMSA or GAMS,GABAA receptor,no effect as a GAMSA or GAMS
same,reduced weight versus the E+P control rats,Male Wistar rats [1]; [7],-23.9 ± 4.4 g
same,reduction in weight compared to vehicle,Male Wistar rats [1]; [7],-33 ± 4.4 g
same,reduced weight versus the E+P control rats,Male Wistar rats [1]; [8],-20.4 ± 5.2 g
same,reduction in weight compared to vehicle,Male Wistar rats [1]; [8],-29.6 ± 5.2 g
same,weight difference after 10 days of treatment compared to vehicle,Male Wistar rats [1]; 10 days s.c. treatment,over 20%
same,"Antagonism of 100 nM THDOC-enhancement, a3β3γ2",[2],"−166 + 19.9%,"
same,"Effect against GABAs agonistic effect, a3β3γ2",[3],"−46 ± 1.3%,"
same,"Effect against GABAs agonistic effect, α1β2γ2",[4],−1.9 ± 2.4%
same,"Antagonism of 100 nM THDOC-enhancement, α1β2γ2",[5],No effect
same,increase in weight versus vehicle treated groups,Male Wistar rats [6],significantly lower
same,Mean weight increase since arrival. g,"Male Wistar rats [6]; in 10% β-cyclodextrine 1 ml/kg, first block of Table 6",97.43 g
same,Mean weight increase since arrival. g,Male Wistar rats [6]; second block of Table 6 (increase from start of treatment),11.86 g

# Source: patent publication US20250387409A1, “3-BETA-HYDROXY-3-ALPHA-ETHYL STEROIDS FOR MODULATION OF THE ALPHA-3 SUBTYPE OF THE GABAA RECEPTOR” (priority 2021, published 2025)
